The subject of one test is S100A8. The experiment in a line: Western blot of S100A8 in p53 KO microglia after IAA. The format is cell-based, mouse. As to conditions: p53 KO with CRISPR-Cas9, IAA 12 h. As to the method:
Western blotting. Cells were treated as indicated in individual Figure legends and whole cell extracts (WCE) were prepared in the radioimmunoprecipitation assay (RIPA) buffer (Sigma) with addition of protease and phosphatase inhibitors (Roche). Proteins were separated by 10% SDS-PAGE and transferred to polyvinylidene difluoride (PVDF) membranes (Bio-Rad Laboratories, Inc., Hercules, CA). Dual color precision protein MW markers (BioRad) were separated in parallel. Antibodies were purchased as follows: cleaved-caspase-3 (ab214430), cleaved PARP (ab203467) and GAPDH (ab9657, Abcam) from Abcam; S100A8 (47310) and S100a9 (72590) from Cell Signaling; and Ltf (GTX81085) from GeneTex. The secondary antibodies conjugated to Fluors Alex-488 (A32723) or Alex-594 (A11012) were purchased from Invitrogen (Eugene, OR). The bands were visualized on the Odyssey Imager (LiCor Inc, Lincoln, NE).
On the technique in general: A western blot detects proteins with antibodies after separation by electrophoresis.

A further test concerns microglial cells. The experiment in a line: FACS analysis of apoptotic bodies (ABs) in supernatants of cultured microglial cells. In kind it is cell-based, mouse. Conditions: microglial cells isolated from young mice. On the procedure:
Flow cytometry. Isolated cells were incubated with blocking solution (0.5% BSA/PBS) for 15 minutes at 4° C. For surface staining, cells were stained with various antibodies at room temperature for 1 hour and then washed with PBS. Washed cells were stained for 40 minutes at 4° C. with the appropriate fluorochrome-conjugated antibodies in PBS with 2% FBS. Data were acquired using a BD FACSCalibur flow cytometer (BD Biosciences, San Jose, CA) and analyzed using FlowJo software (Tree Star Inc., Ashland, OR). The following antibodies purchased from Biolegend were used for flow cytometry: anti-CD11b (101208), anti-CD45 (103112) and FITC Annexin V (640945). For the ABs analysis, extracellular vesicles were collected. To recognize the ABs, as described previously, size gates set based on forward scatter (FSC) were applied in combination with Annexin V staining. From these vesicles total ABs were detected using Annexin V staining events.
Isolation of apoptotic bodies. Apoptotic bodies (ABs) were isolated from culture supernatants as previously described. Briefly, cell culture medium was harvested and cells were removed by pelleting at 335×g for 10 minutes. To remove cell-debris, supernatants were centrifuged at 1,000×g for 10 minutes, followed by another centrifugation at 2,000×g for 30 minutes to pellet ABs. Pelleted ABs were resuspended and washed with PBS.
A general note: A flow cytometer gives signals particle by particle.

The subject of another test is promoter of S100A8. The test is described as follows: Chromatin immunoprecipitation assay with biotinylated IAA. The format is binding, mouse. As to conditions: BV2 genomic DNA. On the procedure:
Chromatin immunoprecipitation assay. To identify the interaction of IAA and promoter of S100A8, 1 mg of IAA was labeled with biotin using the EZ-Link NHS-PEG4 Biotinylation kit (Thermo Fisher Sci., #21455) and excess biotin was removed using a desalting column. Biotinylated IAA was incubated with microglia BV2 cells for 3 h at 37° C. following 37% formaldehyde (final 1%) in 1 ml PBS for one more hour for cross-linking. The cell lysate was collected in 1 ml of RIPA buffer and sonication was used to shear the chromatin into 0.5˜1 kb fragment. Streptavidin Dynabeads ([…]) were added to the DNA samples for 1 h at room temperature. PBS replaced the DNA and was incubated with the beads as the control to exclude non-specific interactions. After washing beads with PBS, biotinylated IAA was eluted from the beads with the biotin (4 mg/ml) in 25mMTris-HCL containing 0.3MNaCl (pH 8.5) as the elution buffer at room temperature for 1 h or 95° C. for 5 min. The supernatant was collected and the DNA was purified with acetic acid (2%, v/v) and dissolved into […] of H2O. Two ml of DNA was used in quantitative PCR reactions using the primers of S100A8-ChIP in Table 3.

In the case of `CC(C)CCN` [IAA, isoamylamine], the “S100A8 induced by IAA (western blot)” value with S100A8 is “p53 dependent”. Besides, in the test with microglial cells, the “ABs released into the culture supernatants” value is listed as “increase”. For the same compound, the “interaction with promoter of S100A8 genomic DNA (ChIP)” value with promoter of S100A8 was “demonstrated”.

The values above are taken from patent US20250136997A1, “COMPOSITIONS FOR SEQUESTERING ISOAMYL AMINE AND METHODS OF USE THEREFOR” (University of Louisville Research Foundation, Inc., priority 2023, published 2025).
